Measured values as given in ChEMBL document CHEMBL5143553, “Structure-activity relationship and mechanistic study on guggulsterone derivatives; Discovery of new anti-pancreatic cancer candidate” (Bioorg Med Chem, 2022).
Active and inactive are the calls of the source. The calls are words filed in the database; no cut-off is given here.

How the values were obtained:
[1] = Selectivity index, ratio of PC50 for Preferential cytotoxic activity against human PANC-1 cells in Dulbecco's modified Eagle's medium to PC50 for Preferential cytotoxic activity against human PANC-1 cells in nutrient-deprived medium; format: functional
[2] = system: PANC-1; assay: Preferential cytotoxic activity against human PANC-1 cells in Dulbecco's modified Eagle's medium; format: functional, cell-based
[3] = system: PANC-1; assay: Preferential cytotoxic activity against human PANC-1 cells in nutrient-deprived medium; format: functional
[4] = biological target: T1, Serine/threonine-protein kinase AKT (Homo sapiens) (UniProt P31751+Q9Y243+P31749); assay: Inhibition of Akt S473 phosphorylation in human PANC-1 cells in DMEM medium at 10 uM incubated for 6 hrs by Western blot analysis; format: cell-based
[5] = system: PANC-1; assay: Inhibition of colony formation in human PANC-1 cells in DMEM medium at 5 uM incubated for 10 days relative to control; format: functional; conditions: PANC-1, 240 h, time 10 day
[6] = system: PANC-1; assay: Inhibition of cell migration in human PANC-1 cells in DMEM medium assessed as wound area level at 5 uM after 48 hrs by wound-healing assay relative to initial area (reference value: 23%); format: functional; design: scale not given: the % may be the effect or the level left
[7] = system: PANC-1; assay: Induction of morphological changes in human PANC-1 cells in nutrient-deprived medium assessed as induction of leakage of intracellular components into the media at 10 uM within 24 hrs by Cyto-smart Lux2 live cell imaging based method; format: functional
[8] = system: PANC-1; assay: Effect on […] protein expression in human PANC-1 cells in NDM medium at 1 to 10 uM incubated for 6 hrs by Western blot analysis; format: functional, cell-based; conditions: dose 1-10 µM
[9] = system: PANC-1; assay: Inhibition of colony formation in human PANC-1 cells in DMEM medium at 3 uM incubated for 10 days relative to control; format: functional; conditions: PANC-1, 240 h, time 10 day
[10] = system: PANC-1; assay: Effect on mTOR protein expression in human PANC-1 cells in NDM medium at 1 to 10 uM incubated for 6 hrs by Western blot analysis; format: functional, cell-based; conditions: dose 1-10 µM
[11] = system: PANC-1; assay: Induction of cell death in human PANC-1 cells in nutrient-deprived medium at 10 uM after 24 hrs by ethidium bromide-acridine orange double-staining assay; format: functional, cell-based
[12] = system: PANC-1; assay: Inhibition of colony formation in human PANC-1 cells in DMEM medium at 1 uM incubated for 10 days relative to control; format: functional; conditions: PANC-1, 240 h, time 10 day
[13] = system: PANC-1; assay: Effect on mTOR protein expression in human PANC-1 cells in DMEM medium at 1 to 10 uM incubated for 6 hrs by Western blot analysis; format: functional, cell-based; conditions: dose 1-10 µM
[14] = system: PANC-1; assay: Effect on Akt protein expression in human PANC-1 cells in DMEM medium at 1 to 10 uM incubated for 6 hrs by Western blot analysis; format: functional, cell-based; conditions: dose 1-10 µM
[15] = system: PANC-1; assay: Inhibition of cell migration in human PANC-1 cells in DMEM medium assessed as wound area level at 3 uM after 48 hrs by wound-healing assay relative to initial area (reference value: 23%); format: functional; design: scale not given: the % may be the effect or the level left
[16] = system: PANC-1; assay: Induction of morphological changes in human PANC-1 cells in nutrient-deprived medium assessed as induction of cell rounding and shrinkage at 10 uM within 24 hrs by Cyto-smart Lux2 live cell imaging based method; format: functional
[17] = biological target: T1, Serine/threonine-protein kinase AKT (Homo sapiens); assay: Inhibition of Akt S473 phosphorylation in human PANC-1 cells in NDM medium at 2.5 to 10 uM incubated for 6 hrs by Western blot analysis; format: cell-based; conditions: dose 2.5-10 µM
[18] = system: PANC-1; assay: Inhibition of cell migration in human PANC-1 cells in DMEM medium assessed as wound area level at 3 uM after 24 hrs by wound-healing assay relative to initial area (reference value: 55%); format: functional; design: scale not given: the % may be the effect or the level left
[19] = biological target: T1, Serine/threonine-protein kinase AKT (Homo sapiens); assay: Inhibition of Akt signaling in human PANC-1 cells assessed as reduction in mTOR […] phosphorylation in NDM medium at 10 uM incubated for 6 hrs by Western blot analysis; format: cell-based
[20] = system: PANC-1; assay: Inhibition of cell migration in human PANC-1 cells in DMEM medium assessed as wound area level at 5 uM after 24 hrs by wound-healing assay relative to initial area (reference value: 55%); format: functional; design: scale not given: the % may be the effect or the level left

T1 sequence (P31749 whole entry, looked up): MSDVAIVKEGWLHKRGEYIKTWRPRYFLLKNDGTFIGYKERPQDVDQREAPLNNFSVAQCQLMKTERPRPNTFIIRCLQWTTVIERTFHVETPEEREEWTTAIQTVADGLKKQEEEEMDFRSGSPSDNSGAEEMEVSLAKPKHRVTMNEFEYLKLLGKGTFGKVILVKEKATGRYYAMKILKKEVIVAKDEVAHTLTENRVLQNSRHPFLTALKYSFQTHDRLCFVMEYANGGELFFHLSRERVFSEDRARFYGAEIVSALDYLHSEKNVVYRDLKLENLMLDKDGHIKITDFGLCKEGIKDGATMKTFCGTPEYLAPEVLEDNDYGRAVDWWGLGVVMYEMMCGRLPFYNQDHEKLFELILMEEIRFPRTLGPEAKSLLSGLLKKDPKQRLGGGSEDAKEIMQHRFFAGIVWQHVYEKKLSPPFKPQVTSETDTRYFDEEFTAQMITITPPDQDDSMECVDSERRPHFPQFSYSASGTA
T1 sequence (P31751 whole entry, looked up): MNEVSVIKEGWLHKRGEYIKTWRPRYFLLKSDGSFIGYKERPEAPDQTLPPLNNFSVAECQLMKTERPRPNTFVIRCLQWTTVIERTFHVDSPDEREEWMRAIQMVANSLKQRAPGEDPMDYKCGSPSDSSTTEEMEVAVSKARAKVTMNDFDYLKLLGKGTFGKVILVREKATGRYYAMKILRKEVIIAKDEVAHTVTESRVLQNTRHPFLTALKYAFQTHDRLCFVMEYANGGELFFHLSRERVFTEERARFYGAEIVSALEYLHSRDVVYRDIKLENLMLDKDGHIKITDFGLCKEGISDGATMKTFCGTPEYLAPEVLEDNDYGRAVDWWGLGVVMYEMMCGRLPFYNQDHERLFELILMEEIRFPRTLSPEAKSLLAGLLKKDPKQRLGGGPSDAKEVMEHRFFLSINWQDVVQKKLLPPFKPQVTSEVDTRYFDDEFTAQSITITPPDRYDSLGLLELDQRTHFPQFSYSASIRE
T1 sequence (Q9Y243 whole entry, looked up): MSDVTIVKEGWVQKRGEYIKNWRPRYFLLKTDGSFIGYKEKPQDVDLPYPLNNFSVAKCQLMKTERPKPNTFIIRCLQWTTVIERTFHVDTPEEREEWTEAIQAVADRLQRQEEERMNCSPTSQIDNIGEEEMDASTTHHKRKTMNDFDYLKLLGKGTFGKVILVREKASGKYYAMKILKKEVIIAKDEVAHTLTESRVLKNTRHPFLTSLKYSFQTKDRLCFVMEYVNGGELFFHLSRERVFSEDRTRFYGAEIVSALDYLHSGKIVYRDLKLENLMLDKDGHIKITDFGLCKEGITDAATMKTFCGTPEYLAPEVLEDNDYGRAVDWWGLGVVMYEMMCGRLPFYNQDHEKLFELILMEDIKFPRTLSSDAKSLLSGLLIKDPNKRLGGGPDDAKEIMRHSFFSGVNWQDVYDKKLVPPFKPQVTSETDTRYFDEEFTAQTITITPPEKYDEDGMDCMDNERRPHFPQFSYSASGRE

SMILES	Selectivity Index [1]	IC50 [2] [µM]	PC50 [3]	also measured
C=C1C(F)(F)C[C@H]2[C@@H]3CCC4=CC(=O)CC[C@]4(C)[C@H]3CC[C@]12C	>7.1	> 100	14 µM	
C/C=C1/CC[C@H]2[C@@H]3CCC4=CC(=O)CC[C@]4(C)[C@H]3CC[C@]12C	>31	> 100	3.2 µM	
C[C@]12CC[C@H]3[C@@H](CCC4=CC(=O)CC[C@@]43C)[C@@H]1CC(=O)[C@@H]2CSCCO		100	53 µM	
C[C@]12CCC(=O)C=C1CC[C@@H]1[C@@H]2CC[C@]2(C)C(=C(F)F)CC[C@@H]12	18	91	5.2 µM	
C=C1C(=O)C[C@H]2[C@@H]3CC[C@H]4CC(=O)CC[C@]4(C)[C@H]3CC[C@]12C	4.9	3.5	0.72 µM	inhibition [4]: Active; inhibition at 5 µM [5]: 100%; Activity [6]: 70%; Activity [7]: Active; Activity [8]: Non-Toxic; inhibition at 3 µM [9]: 97.7%; Activity [10]: Non-Toxic; Activity [11]: Active; inhibition at 1 µM [12]: > 50.9%; Activity [13]: Non-Toxic; Activity [14]: Non-Toxic; Activity [15]: 45%; Activity [16]: Active; inhibition [17]: Active; Activity [18]: 70%; inhibition [19]: Active; Activity [20]: 85%
C=C1C(=O)C[C@H]2[C@@H]3CCC4=CC(=O)CC[C@]4(C)[C@H]3CC[C@]12C	6.9		1.6 µM	
COCO[C@@H]1C[C@H]2[C@@H]3CCC4=CC(=O)CC[C@]4(C)[C@H]3CC[C@]2(C)C1=C(F)F	3.2	29	9.2 µM	
CC(=O)O[C@H]1CCCC2=CC(=O)CC[C@@]21C		> 100	>100 µM	
C=C1C(=O)C[C@H]2[C@@H]3CC[C@H]4CCCC[C@]4(C)[C@H]3CC[C@]12C	3.8	3	0.8 µM	
C/C=C1/C(=O)C[C@H]2[C@@H]3CCC4=CC(=O)CC[C@]4(C)[C@H]3CC[C@]12C			Active	
C[C@]12CCC(=O)C=C1CC[C@@H]1[C@@H]2CC[C@]2(C)C(=C(F)F)[C@H](O)C[C@@H]12	2.8	51	18 µM	
C=C1[C@H](O)C[C@H]2[C@@H]3CCC4=CC(=O)CC[C@]4(C)[C@H]3CC[C@]12C		> 100	57 µM	
C=C1[C@H](OCOC)C[C@H]2[C@@H]3CCC4=CC(=O)CC[C@]4(C)[C@H]3CC[C@]12C	3.2	100	31 µM	
C=C1CC[C@H]2[C@@H]3CCC4=CC(=O)CC[C@]4(C)[C@H]3CC[C@]12C	14	50	3.5 µM	
CCO[C@H]1CCCC2=CC(=O)CC[C@@]21C		> 100	>100 µM	
